Common to all, as to assay type: in vivo
Data set [1] relates to Oryza sativa subsp. indica. Briefly: Greenhouse herbicidal activity and crop safety comparison (Test Example 2). The note with it: Rate 150 g/ha. The gist of the method: (§1)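 Fresh weight inhibition, banded into grades A to E (E <20%), was rated 14-21 days after foliar spraying of 3-6 leaf plants, or 14-30 days after a soil spray applied 24 h post-sowing.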
The test system of data set [2] is Leptochloa chinensis. The data set is described as above. The note with it: Rate 150 g/ha; for inhibition at 150 g/ha: Dinebra chinensis, read-out: Leptochloa chinensis, control efficacy grading (fresh weight inhibition rate). The gist of the method: as §1
The subject of data set [3] is Oryza sativa subsp. japonica. The data set is described as above. The conditions noted are these: Rate 150 g/ha. The gist of the method:
as §1

Data set [4] has as its system Echinochloa crusgalli. The data set is described as above. The note with it: Rate 150 g/ha; for inhibition at 150 g/ha: Echinochloa crus-galli, read-out: Echinochloa crusgalli, control efficacy grading (fresh weight inhibition rate). The method, boiled down:
as §1

Data set [5] has as its system Leptochloa chinensis. Put plainly: Greenhouse herbicidal activity assay, post-emergence. The conditions noted are these: Post-emergence test, rate 150 g a.i./hm^2, grade by fresh weight inhibition rate; for pest or weed control at 150 g/ha: Dinebra chinensis, read-out: Control efficacy grade, Leptochloa chinensis. The method, boiled down: (§2)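 Weeds and crops grown in pots of nutrient soil in a growth chamber to the 3-6 leaf stage, then foliar-sprayed and air-dried. Fresh weight inhibition scored 14-21 days after treatment and graded A (≥80%) through E (<20%).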

For data set [6], the system named is Digitaria sanguinalis. The description is as above. The conditions noted are these: Post-emergence test, rate 150 g a.i./hm^2, grade by fresh weight inhibition rate; for pest or weed control at 150 g/ha: Digitaria sanguinalis, read-out: Control efficacy grade, Digitaria sanguinalis. The gist of the method: as §2
The test system of data set [7] is Cyperus iria. The data set is described as above. The conditions noted are these: Post-emergence test, rate 150 g a.i./hm^2, grade by fresh weight inhibition rate; for pest or weed control at 150 g/ha: Cyperus iria, read-out: Control efficacy grade, Cyperus iria. The gist of the method:
as §2

Data set [8] concerns Eclipta prostrata. Described as above. The note with it: Post-emergence test, rate 150 g a.i./hm^2, grade by fresh weight inhibition rate; for pest or weed control at 150 g/ha: Eclipta prostrata, read-out: Control efficacy grade, Eclipta prostrata. The gist of the method:
as §2

In data set [9] the test system is Echinochloa crusgalli. Described as above. The note with it: Post-emergence test, rate 150 g a.i./hm^2, grade by fresh weight inhibition rate; for pest or weed control at 150 g/ha: Echinochloa crus-galli, read-out: Control efficacy grade, Echinochloa crusgalli. The method, boiled down: as §2

In the case of `CCc1nnc(NC(=O)c2ccc(S(C)(=O)=O)c(S(=O)(=O)C(C)C)c2Cl)o1` [Compound 3-392, 2-chloro-N-(5-ethyl-1,3,4-oxadiazol-2-yl)-3-(isopropylsulfonyl)-4-(methylsulfonyl)benzamide], in [1], the “Oryza sativa subsp. indica, grading of fresh weight inhibition rate (crop safety)” value is given as “E (Fresh weight inhibition rate<20%)”. Moreover, the inhibition at 150 g/ha in data set [2] and in [4] was 80 to 100% each time. For the same molecule, in data set [3], the “Oryza sativa subsp. japonica, grading of fresh weight inhibition rate (crop safety)” value was “E (Fresh weight inhibition rate<20%)”. In addition, the pest or weed control at 150 g/ha in data set [5], in data set [6], in data set [7], in [8] and in data set [9] was 80 to 100% each time.
Take `CCc1nnc(NC(=O)c2ccc(S(C)(=O)=O)c(S(=O)(=O)CC3CC3)c2Cl)o1` [Compound 3-418]: the “Oryza sativa subsp. indica, grading of fresh weight inhibition rate (crop safety)” value in data set [1] is given as “E (Fresh weight inhibition rate<20%)”. The “Leptochloa chinensis, control efficacy grading (fresh weight inhibition rate)” value in data set [2] is “A (Fresh weight inhibition rate≥80% to 100%)”. For the same molecule, the “Oryza sativa subsp. japonica, grading of fresh weight inhibition rate (crop safety)” value in [3] is “E (Fresh weight inhibition rate<20%)”. In data set [4], the “Echinochloa crusgalli, control efficacy grading (fresh weight inhibition rate)” value is “A (Fresh weight inhibition rate≥80% to 100%)”. In addition, in data set [5], the “Control efficacy grade, Leptochloa chinensis” value is “A (Fresh weight inhibition rate≥80% to 100%)”. In addition, the “Control efficacy grade, Digitaria sanguinalis” value in [6] was “A (Fresh weight inhibition rate≥80% to 100%)”. The “Control efficacy grade, Cyperus iria” value in [7] is reported as “A (Fresh weight inhibition rate≥80% to 100%)”. Also, the “Control efficacy grade, Eclipta prostrata” value in data set [8] is recorded as “A (Fresh weight inhibition rate≥80% to 100%)”. The “Control efficacy grade, Echinochloa crusgalli” value in [9] is “A (Fresh weight inhibition rate≥80% to 100%)”.
Regarding `CCc1nnc(NC(=O)c2ccc(S(C)(=O)=O)c(S(=O)(=O)C3CC3)c2Cl)o1` [Compound 3-423], the “Oryza sativa subsp. indica, grading of fresh weight inhibition rate (crop safety)” value in [1] was “E (Fresh weight inhibition rate<20%)”. The “Leptochloa chinensis, control efficacy grading (fresh weight inhibition rate)” value in [2] is listed as “A (Fresh weight inhibition rate≥80% to 100%)”. In addition, in [3], the “Oryza sativa subsp. japonica, grading of fresh weight inhibition rate (crop safety)” value is listed as “E (Fresh weight inhibition rate<20%)”. Further, the “Echinochloa crusgalli, control efficacy grading (fresh weight inhibition rate)” value in [4] was “A (Fresh weight inhibition rate≥80% to 100%)”. The “Control efficacy grade, Leptochloa chinensis” value in [5] was “A (Fresh weight inhibition rate≥80% to 100%)”. The “Control efficacy grade, Digitaria sanguinalis” value in data set [6] is “A (Fresh weight inhibition rate≥80% to 100%)”. Further, the “Control efficacy grade, Cyperus iria” value in data set [7] is recorded as “A (Fresh weight inhibition rate≥80% to 100%)”. In addition, the “Control efficacy grade, Eclipta prostrata” value in [8] is “A (Fresh weight inhibition rate≥80% to 100%)”. In addition, the “Control efficacy grade, Echinochloa crusgalli” value in data set [9] is “A (Fresh weight inhibition rate≥80% to 100%)”.
As to `CCc1nnc(NC(=O)c2ccc(S(C)(=O)=O)c(S(=O)(=O)C3CCC3)c2Cl)o1` [Compound 3-428], the “Oryza sativa subsp. indica, grading of fresh weight inhibition rate (crop safety)” value in [1] is recorded as “E (Fresh weight inhibition rate<20%)”. Besides, the “Leptochloa chinensis, control efficacy grading (fresh weight inhibition rate)” value in data set [2] was “A (Fresh weight inhibition rate≥80% to 100%)”. In addition, in data set [3], the “Oryza sativa subsp. japonica, grading of fresh weight inhibition rate (crop safety)” value was “E (Fresh weight inhibition rate<20%)”. Further, the “Echinochloa crusgalli, control efficacy grading (fresh weight inhibition rate)” value in data set [4] was “A (Fresh weight inhibition rate≥80% to 100%)”. The “Control efficacy grade, Leptochloa chinensis” value in data set [5] was “A (Fresh weight inhibition rate≥80% to 100%)”. In addition, in data set [6], the “Control efficacy grade, Digitaria sanguinalis” value is recorded as “A (Fresh weight inhibition rate≥80% to 100%)”. Also, the “Control efficacy grade, Cyperus iria” value in data set [7] is “A (Fresh weight inhibition rate≥80% to 100%)”. The “Control efficacy grade, Eclipta prostrata” value in [8] was “A (Fresh weight inhibition rate≥80% to 100%)”. Further, the “Control efficacy grade, Echinochloa crusgalli” value in data set [9] is given as “A (Fresh weight inhibition rate≥80% to 100%)”.
Take `CCc1nnc(NC(=O)c2ccc(S(C)(=O)=O)c(S(=O)(=O)C3CCCC3)c2Cl)o1` [Compound 3-433]: in data set [1], the “Oryza sativa subsp. indica, grading of fresh weight inhibition rate (crop safety)” value was “E (Fresh weight inhibition rate<20%)”. The “Leptochloa chinensis, control efficacy grading (fresh weight inhibition rate)” value in [2] is recorded as “A (Fresh weight inhibition rate≥80% to 100%)”. Further, the “Oryza sativa subsp. japonica, grading of fresh weight inhibition rate (crop safety)” value in [3] is on record as “E (Fresh weight inhibition rate<20%)”. Moreover, the “Echinochloa crusgalli, control efficacy grading (fresh weight inhibition rate)” value in [4] is “A (Fresh weight inhibition rate≥80% to 100%)”. The “Control efficacy grade, Leptochloa chinensis” value in data set [5] is “A (Fresh weight inhibition rate≥80% to 100%)”. Besides, the “Control efficacy grade, Digitaria sanguinalis” value in data set [6] is “A (Fresh weight inhibition rate≥80% to 100%)”. In [7], the “Control efficacy grade, Cyperus iria” value is recorded as “A (Fresh weight inhibition rate≥80% to 100%)”. In data set [8], the “Control efficacy grade, Eclipta prostrata” value is recorded as “A (Fresh weight inhibition rate≥80% to 100%)”. In addition, the “Control efficacy grade, Echinochloa crusgalli” value in data set [9] is recorded as “A (Fresh weight inhibition rate≥80% to 100%)”.
Take `C=CCS(=O)(=O)c1c(S(C)(=O)=O)ccc(C(=O)Nc2nnc(CC)o2)c1Cl` [Compound 3-458]: the “Oryza sativa subsp. indica, grading of fresh weight inhibition rate (crop safety)” value in data set [1] is recorded as “E (Fresh weight inhibition rate<20%)”. In addition, in data set [2], the “Leptochloa chinensis, control efficacy grading (fresh weight inhibition rate)” value was “A (Fresh weight inhibition rate≥80% to 100%)”. Moreover, the “Oryza sativa subsp. japonica, grading of fresh weight inhibition rate (crop safety)” value in data set [3] is listed as “E (Fresh weight inhibition rate<20%)”. Moreover, the “Echinochloa crusgalli, control efficacy grading (fresh weight inhibition rate)” value in [4] is recorded as “A (Fresh weight inhibition rate≥80% to 100%)”. Besides, the “Control efficacy grade, Leptochloa chinensis” value in [5] was “A (Fresh weight inhibition rate≥80% to 100%)”. Further, in data set [6], the “Control efficacy grade, Digitaria sanguinalis” value was “A (Fresh weight inhibition rate≥80% to 100%)”. Further, in [7], the “Control efficacy grade, Cyperus iria” value is on record as “A (Fresh weight inhibition rate≥80% to 100%)”. Also, the “Control efficacy grade, Eclipta prostrata” value in data set [8] was “A (Fresh weight inhibition rate≥80% to 100%)”. Moreover, the “Control efficacy grade, Echinochloa crusgalli” value in data set [9] is “A (Fresh weight inhibition rate≥80% to 100%)”.
For the molecule `CCCS(=O)(=O)c1c(S(C)(=O)=O)ccc(C(=O)Nc2nnc(C(C)C)o2)c1Cl` [Compound 3-503, 2-chloro-N-(5-isopropyl-1,3,4-oxadiazol-2-yl)-4-(methylsulfonyl)-3-(propylsulfonyl)benzamide], the “Oryza sativa subsp. indica, grading of fresh weight inhibition rate (crop safety)” value in data set [1] is listed as “E (Fresh weight inhibition rate<20%)”. The inhibition at 150 g/ha in data set [2] and in [4] was 80 to 100% in each case. For the same molecule, the “Oryza sativa subsp. japonica, grading of fresh weight inhibition rate (crop safety)” value in [3] was “E (Fresh weight inhibition rate<20%)”. The pest or weed control at 150 g/ha in data set [5], in [6], in [7], in [8] and in [9] was 80 to 100% each time.
For `CC(C)c1nnc(NC(=O)c2ccc(S(C)(=O)=O)c(S(=O)(=O)C(C)C)c2Cl)o1` [Compound 3-508], in data set [1], the “Oryza sativa subsp. indica, grading of fresh weight inhibition rate (crop safety)” value is recorded as “E (Fresh weight inhibition rate<20%)”. Besides, the “Leptochloa chinensis, control efficacy grading (fresh weight inhibition rate)” value in data set [2] is reported as “A (Fresh weight inhibition rate≥80% to 100%)”. Besides, the “Oryza sativa subsp. japonica, grading of fresh weight inhibition rate (crop safety)” value in data set [3] is listed as “E (Fresh weight inhibition rate<20%)”. In data set [4], the “Echinochloa crusgalli, control efficacy grading (fresh weight inhibition rate)” value is listed as “A (Fresh weight inhibition rate≥80% to 100%)”. Moreover, in [5], the “Control efficacy grade, Leptochloa chinensis” value is listed as “A (Fresh weight inhibition rate≥80% to 100%)”. For the same molecule, the “Control efficacy grade, Digitaria sanguinalis” value in data set [6] was “A (Fresh weight inhibition rate≥80% to 100%)”. Further, the “Control efficacy grade, Cyperus iria” value in [7] is reported as “A (Fresh weight inhibition rate≥80% to 100%)”. Moreover, in data set [8], the “Control efficacy grade, Eclipta prostrata” value was “A (Fresh weight inhibition rate≥80% to 100%)”. For the same molecule, the “Control efficacy grade, Echinochloa crusgalli” value in data set [9] was “A (Fresh weight inhibition rate≥80% to 100%)”.
`C=CCS(=O)(=O)c1c(S(C)(=O)=O)ccc(C(=O)Nc2nnc(C(C)C)o2)c1Cl` [Compound 3-574]: the “Oryza sativa subsp. indica, grading of fresh weight inhibition rate (crop safety)” value in [1] is “E (Fresh weight inhibition rate<20%)”. In data set [2], the “Leptochloa chinensis, control efficacy grading (fresh weight inhibition rate)” value is recorded as “A (Fresh weight inhibition rate≥80% to 100%)”. Also, the “Oryza sativa subsp. japonica, grading of fresh weight inhibition rate (crop safety)” value in data set [3] is reported as “E (Fresh weight inhibition rate<20%)”. Besides, the “Echinochloa crusgalli, control efficacy grading (fresh weight inhibition rate)” value in data set [4] is listed as “A (Fresh weight inhibition rate≥80% to 100%)”. Further, the “Control efficacy grade, Leptochloa chinensis” value in data set [5] was “A (Fresh weight inhibition rate≥80% to 100%)”. Moreover, the “Control efficacy grade, Digitaria sanguinalis” value in [6] is “B (Fresh weight inhibition rate≥260% to <80%)”. The “Control efficacy grade, Cyperus iria” value in data set [7] is on record as “A (Fresh weight inhibition rate≥80% to 100%)”. The “Control efficacy grade, Eclipta prostrata” value in data set [8] is reported as “A (Fresh weight inhibition rate≥80% to 100%)”. Moreover, the “Control efficacy grade, Echinochloa crusgalli” value in [9] is given as “A (Fresh weight inhibition rate≥80% to 100%)”.

The record behind these values is US20250223268A1, “4-Methylsulfonylbenzamide Compound, Preparation Method, Herbicidal Composition And Use” (Jiangsu Flag Chemical Industry Co., Ltd., priority 2022, published 2025).
